Our source for the IC50 values is patent US10428080B2, “TBK/IKK inhibitor compounds and uses thereof” (Merck Patent GmbH, priority 2015, dated 2019).

The target of one test is T1, IKKε (Homo sapiens, UniProt Q14164).
T1 sequence (Q14164 1-716): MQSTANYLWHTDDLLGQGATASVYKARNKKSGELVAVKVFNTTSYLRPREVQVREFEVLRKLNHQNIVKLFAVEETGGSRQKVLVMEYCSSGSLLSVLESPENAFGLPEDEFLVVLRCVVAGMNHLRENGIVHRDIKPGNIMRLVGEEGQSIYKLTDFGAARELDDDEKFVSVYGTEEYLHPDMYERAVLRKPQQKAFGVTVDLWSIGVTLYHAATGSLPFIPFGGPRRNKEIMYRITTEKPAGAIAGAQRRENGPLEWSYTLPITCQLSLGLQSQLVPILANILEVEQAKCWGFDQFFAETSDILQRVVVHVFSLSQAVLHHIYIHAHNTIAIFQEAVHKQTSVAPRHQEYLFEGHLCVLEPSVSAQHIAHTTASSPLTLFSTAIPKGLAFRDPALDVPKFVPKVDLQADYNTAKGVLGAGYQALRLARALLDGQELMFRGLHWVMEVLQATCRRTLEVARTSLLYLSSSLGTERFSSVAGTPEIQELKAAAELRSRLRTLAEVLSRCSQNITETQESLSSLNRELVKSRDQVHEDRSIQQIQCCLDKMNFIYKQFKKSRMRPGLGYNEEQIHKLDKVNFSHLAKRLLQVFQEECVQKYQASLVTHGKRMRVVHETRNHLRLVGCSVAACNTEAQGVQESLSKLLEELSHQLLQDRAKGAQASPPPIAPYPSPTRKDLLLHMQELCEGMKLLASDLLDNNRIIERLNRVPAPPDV
Nature of the test: IKKe Biochemical Assay. The note with it: read-out: IKKε IC50. The method, then:
Test compounds were transferred into Labcyte polypropylene 384 well plates (P055-25) and diluted to 3 mM using DMSO. 3 mM test compounds were dispensed using Labcyte ECHO dose response module into (Greiner 784075 plates (columns 3-12 and 13-22, 10 point 1:4) so that high concentration was 30 uM final. 100 uM of a reference compound (1 uM final high concentration). Backfilling was performed if necessary so that all wells contain 1% DMSO final: […]
add 75 nl DMSO/well into columns 1, 2 and 24 using Labcyte Echo. add 75 nl 1.0 mM staurosporine/well into column 23 using Labcyte Echo (10 uM final) add 4.5 ul enzyme/well using multidrop dispenser add 3 ul substrate/well using multidrop dispenser incubate at 25° C. for 90 min. add 7.5 ul 2× stop buffer read on labchip ez reader II using IKKε. job
(§1) Raw data files were opened in the Caliper LabChip Reviewer program (Version 3.0.265.0 SP2) and peak assignments were adjusted to reflect “substrate first” with the software's post-run analysis options. A spline-fit baseline was applied using the software's analysis algorithm.

A further test deals with T2, TBK1 (Homo sapiens, UniProt Q9UHD2).
T2 sequence (Q9UHD2 1-729): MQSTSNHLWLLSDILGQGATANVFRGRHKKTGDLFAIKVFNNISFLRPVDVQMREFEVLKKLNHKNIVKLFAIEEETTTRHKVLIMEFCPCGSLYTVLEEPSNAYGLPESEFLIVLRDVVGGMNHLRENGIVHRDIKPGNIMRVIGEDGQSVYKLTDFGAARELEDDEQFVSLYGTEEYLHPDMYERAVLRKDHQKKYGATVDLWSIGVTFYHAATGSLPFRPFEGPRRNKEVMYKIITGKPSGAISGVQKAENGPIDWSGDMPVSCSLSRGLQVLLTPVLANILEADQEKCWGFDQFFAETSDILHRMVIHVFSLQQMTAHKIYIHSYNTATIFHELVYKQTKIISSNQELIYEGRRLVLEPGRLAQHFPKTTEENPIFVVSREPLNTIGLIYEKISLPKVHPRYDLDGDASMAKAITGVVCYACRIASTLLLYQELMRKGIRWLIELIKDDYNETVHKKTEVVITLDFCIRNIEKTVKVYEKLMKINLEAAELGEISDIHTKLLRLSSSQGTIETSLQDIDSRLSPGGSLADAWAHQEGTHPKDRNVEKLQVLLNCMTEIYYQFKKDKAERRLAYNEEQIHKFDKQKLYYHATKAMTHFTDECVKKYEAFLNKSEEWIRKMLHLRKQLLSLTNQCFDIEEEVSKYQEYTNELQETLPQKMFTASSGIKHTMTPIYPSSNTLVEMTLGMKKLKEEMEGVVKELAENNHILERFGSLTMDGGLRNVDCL
Briefly: TBK Biochemical Assay. The note with it: read-out: TBK1 IC50. As for the experimental part:
Example 482: TBK Biochemical Assay
Test compounds were transferred into Labcyte polypropylene 384 well plates (P055-25) and diluted to 3 mM using DMSO. 3 mM test compounds were dispensed using Labcyte ECHO dose response module into Greiner 784075 plates (columns 3-12 and 13-22, 10 point 1:4) so that high concentration was 30 uM final. 100 uM of a reference compound (1 uM final high concentration). Backfilling was performed if necessary so that all wells contain 1% DMSO final: […]
add 75 nl DMSO/well into columns 1, 2 and 24 using Labcyte Echo. add 75 nl 1.0 mM staurosporine/well into column 23 using Labcyte Echo ([…]) add 4.5 ul enzyme/well using multidrop dispenser add 3 ul substrate/well using multidrop dispenser incubate at 25° C. in Heidolph incubator for 90 min. add 7.5 ul 2× stop buffer using multidrop dispenser read on labchip ez reader II using TBK1.job
as §1

Structures can show the parent of a compound that is named as a salt.

Consider `CN(C)C(=O)c1ccc(-c2cc3nccc(-c4ccc(Oc5ccncc5)c(C#N)c4)c3o2)cc1` [Compound 200, 4-{7-[3-Cyano-4-(pyridin-4-yloxy)-phenyl]-furo[3,2-b]pyridin-2-yl}-N,N-dimethyl-benzamide], for which, at IKKε, the IC50 was over 5 µM. On the same count and under the same terms, the same measure for `COC(=O)c1ccc(-c2cc3nccc(-c4ccc(OC5CC6(COC6)C5)c(C#N)c4)c3o2)cc1` [Compound 204]: 0.1 to 1 µM; for `COC(=O)c1ccc(-c2cc3nccc(-c4ccc(Oc5ccccc5F)c(C#N)c4)c3o2)cc1` [Compound 205]: over 5 µM. In the case of `CN(C)C(=O)c1ccc(-c2cc3nccc(-c4cc(F)c(OC5CCOC6(CC6)C5)c(C#N)c4)c3o2)cc1` (centres unmarked) [Compound 288, 4-[7-(3-cyano-5-fluoro-4-[4-oxaspiro[2.5]octan-7-yloxy]phenyl)furo[3,2-b]pyridin-2-yl]-N,N-dimethylbenzamide hydrochloride], the IC50 on TBK1 was over 5 µM. For the molecule `CC1COCC(C)C1Oc1c(F)cc(-c2ccnc3cc(-c4ccc(C(=O)N(C)C)cc4)oc23)cc1C#N` (centres unmarked) [Compound 289, 4-(7-[3-cyano-4-[(3,5-dimethyloxan-4-yl)oxy]-5-fluorophenyl]furo[3,2-b]pyridin-2-yl)-N,N-dimethylbenzamide], the concentration for half-maximal inhibition (IC50) on TBK1 is over 5 µM.

As to `COc1cc(C(=O)N(C)C)ccc1-c1cc2nccc(-c3cc(F)c(OC4CCOC5(CC5)C4)c(C#N)c3)c2o1` (centres unmarked) [Compound 293, 4-[7-(3-cyano-5-fluoro-4-[4-oxaspiro[2.5]octan-7-yloxy]phenyl)furo[3,2-b]pyridin-2-yl]-3-methoxy-N,N-dimethylbenzamide], the IC50 on TBK1 was over 5 µM.

On to `COc1cc(C(=O)N(C)C)ccc1-c1cc2nccc(-c3cc(F)c(OC4C(C)COCC4C)c(C#N)c3)c2o1` (centres unmarked) [Compound 294, 4-(7-[3-cyano-4-[(3,5-dimethyloxan-4-yl)oxy]-5-fluorophenyl]furo[3,2-b]pyridin-2-yl)-3-methoxy-N,N-dimethylbenzamide], for which, at TBK1, the IC50 is over 5 µM. Turning to `CN(C)C(=O)c1ccc(-c2cc3ncc(C4CC4)c(-c4ccc(NC5CCOCC5)c(C#N)c4)c3o2)c(F)c1` [Compound 309, 4-(7-[3-cyano-4-[(oxan-4-yl)amino]phenyl]-6-cyclopropylfuro[3,2-b]pyridin-2-yl)-3-fluoro-N,N-dimethylbenzamide], the IC50 at TBK1 was over 5 µM. The same measure, in the same setting: the same measure for `CN(C)C(=O)c1ccc(-c2cc3ncc(C4CC4)c(-c4ccc(OC5CCOCC5)c(C#N)c4)c3o2)c(F)c1` [Compound 310, 4-[7-[3-cyano-4-(oxan-4-yloxy)phenyl]-6-cyclopropylfuro[3,2-b]pyridin-2-yl]-3-fluoro-N,N-dimethylbenzamide]: over 5 µM; for `CN(CCO)C(=O)c1ccc(-c2cc3ncc(C4CC4)c(-c4ccc(NC5CCOCC5)c(C#N)c4)c3o2)c(F)c1` [Compound 311, 4-(7-(3-cyano-4-(tetrahydro-2H-pyran-4-ylamino)phenyl)-6-cyclopropylfuro[3,2-b]pyridin-2-yl)-3-fluoro-N-(2-hydroxyethyl)-N-methylbenzamide]: over 5 µM; for `CN(CCO)C(=O)c1ccc(-c2cc3ncc(C4CC4)c(-c4ccc(OC5CCOCC5)c(C#N)c4)c3o2)c(F)c1` [Compound 312, 4-(7-(3-cyano-4-(tetrahydro-2H-pyran-4-yloxy)phenyl)-6-cyclopropylfuro[3,2-b]pyridin-2-yl)-3-fluoro-N-(2-hydroxyethyl)-N-methylbenzamide]: over 5 µM. Same read-out and setting: as for `COc1cc(C(=O)N(C)C)cnc1-c1cc2ncc(C(C)C)c(-c3ccc(OC4CCOCC4)c(C#N)n3)c2o1` [Compound 331, 6-[7-[6-cyano-5-(oxan-4-yloxy)pyridin-2-yl]-6-(propan-2-yl)furo[3,2-b]pyridin-2-yl]-5-methoxy-N,N-dimethylpyridine-3-carboxamide hydrochloride], the figure is over 5 µM. `COc1cc(C(=O)N(C)C)cnc1-c1cc2ncc(C(C)C)c(-c3ccc(OC4CCOCC4)c(C#N)c3)c2o1` [Compound 332, 6-[7-[3-cyano-4-(oxan-4-yloxy)phenyl]-6-(propan-2-yl)furo[3,2-b]pyridin-2-yl]-5-methoxy-N,N-dimethylpyridine-3-carboxamide]: at TBK1, the IC50 is over 5 µM. Same read-out and setting: the same measure for `COc1cc(C(=O)N(C)C)cnc1-c1cc2ncc(C(C)C)c(-c3ccc(NC4CCOCC4)c(C#N)c3)c2o1` [Compound 335, 6-(7-[3-cyano-4-[(oxan-4-yl)amino]phenyl]-6-(propan-2-yl)furo[3,2-b]pyridin-2-yl)-5-methoxy-N,N-dimethylpyridine-3-carboxamide hydrochloride]: over 5 µM. Take `COc1cc(C(=O)N(C)C)cnc1-c1cc2ncc(Cl)c(-c3ccc(NC4CCOCC4)c(C#N)c3)c2o1` [Compound 337, 6-(6-chloro-7-[3-cyano-4-[(oxan-4-yl)amino]phenyl]furo[3,2-b]pyridin-2-yl)-5-methoxy-N,N-dimethylpyridine-3-carboxamide]: the IC50 on TBK1 is over 5 µM. Still for that read-out and setting: the same measure for `COc1cc(C(=O)N(C)C)cnc1-c1cc2ncc(C3CC3)c(-c3ccc(NC4CCOCC4)c(C#N)n3)c2o1` [Compound 353, 6-(7-[6-cyano-5-[(oxan-4-yl)amino]pyridin-2-yl]-6-cyclopropylfuro[3,2-b]pyridin-2-yl)-5-methoxy-N,N-dimethylpyridine-3-carboxamide hydrochloride]: over 5 µM; for `COc1cc(C(=O)N(C)CCO)cnc1-c1cc2ncc(C(C)C)c(-c3ccc(OC4CCOCC4)c(C#N)n3)c2o1` [Compound 359, 6-[7-[6-cyano-5-(oxan-4-yloxy)pyridin-2-yl]-6-(propan-2-yl)furo[3,2-b]pyridin-2-yl]-N-(2-hydroxyethyl)-5-methoxy-N-methylpyridine-3-carboxamide hydrochloride]: over 5 µM; for `COc1cc(C(=O)N(C)C)cnc1-c1cc2ncc(C(C)C)c(-c3ccc(NC4CCOCC4)c(C#N)n3)c2o1` [Compound 361, 6-(7-[6-cyano-5-[(oxan-4-yl)amino]pyridin-2-yl]-6-(propan-2-yl)furo[3,2-b]pyridin-2-yl)-5-methoxy-N,N-dimethylpyridine-3-carboxamide]: over 5 µM. Same read-out and setting: as for `COc1ccc(C#N)cc1-c1ccnc2cc(-c3ncc(C(=O)N(C)C)cc3OC)oc12` [Compound 490, 6-{7-[5-Cyano-2-methoxy-phenyl)-furo[3,2-b]pyridin-2-yl}-5-methoxy-N,N-dimethyl-nicotinamide], the figure is over 5 µM; as for `COc1cc(C(=O)N(C)C)cnc1-c1cc2ncc(C3CC3)c(-c3ccc(NC4CCOCC4)c(C#N)c3)c2o1` [Compound 522, 6-(7-[3-cyano-4-[(oxan-4-yl)amino]phenyl]-6-cyclopropylfuro[3,2-b]pyridin-2-yl)-5-methoxy-N,N-dimethylpyridine-3-carboxamide], over 5 µM.
